From patent publication US20260347372A1, “SMALL MOLECULE INHIBITORS OF KRAS G12D MUTANT” (MERCK SHARP & DOHME LLC, priority 2023, published 2026) come the findings set out here.

SMILES strings stand for the structures.

The target in one assay is KRAS G12D (Homo sapiens, UniProt P01116, G12D). Kind of assay: SOS-catalyzed nucleotide exchange assay, KRAS G12D (Procedure A). Type of assay: biochemical. The settings on record: guanine nucleotide exchange (GNE). The method in brief:
(§1)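 Compounds in 10-point 3-fold series sat 60 min with biotin-KRAS/Bodipy-GDP/Tb-streptavidin complex, then human SOS and 3 mM GTP were added. G13D: 1.25 nM KRAS, no SOS, 30 min. WT and G12D: 1 nM with 40 nM SOS, 60 min. G12C (C51S/C80L/C118S): 3 nM/40 nM, 60 min. Curves fitted from normalised TR-FRET 520/495 ratio.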

A further assay addresses T1, AsPC-1 cells (Homo sapiens, UniProt P01116, G12D).
T1 construct: p-ERK/total ERK AlphaSureFire read-out
Kind of assay: Cellular phospho-ERK assay, AsPC-1 cells (KRAS G12D). The assay is classed as cell-based. The settings on record: 2 hours, read-out: AsPC1 pERK IC50. The procedure, abridged: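 Compound was titrated 10-point in 3-fold steps (top 30 μM) on KRAS G12D homozygous pancreatic lines PANC08.13 and AsPC-1 for 2 h at 37 °C. The p-ERK/total ERK ratio was measured by multiplex AlphaLISA SureFire and fitted with a 4-parameter logistic model to give IC50.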

In another assay the target is KRAS G12C (Homo sapiens, UniProt P01116, C118S/C51S/C80L/G12C). Briefly: SOS-catalyzed nucleotide exchange assay, KRAS G12C (Procedure A). The assay is classed as biochemical. Conditions: GNE. From the text:
(§2) Procedure for SOS-Catalyzed Nucleotide Exchange Assay for KRAS-WT, G12C/D/V, G13D, HRAS, and NRAS (Procedure A)
(§3) Recombinant KRAS-G12C protein used in this assay has an additional triple mutation (C51S/C80L/C118S). Whereas KRAS-WT, G12D/V, G13D, HRAS and NRAS are in context of their WT protein sequence background. Specifically, the SOS-catalyzed nucleotide exchange assay utilizes a preformed TR-FRET complex containing a specific biotinylated RAS protein (KRAS-WT, G12C/V/D, G13D, HRAS, NRAS; described above) with Bodipy-GDP, and Terbium-streptavidin. Compounds are preincubated with this complex for 60 minutes. Subsequently, recombinant human SOS protein and unlabeled GTP are added to initiate the exchange reaction. Small molecule inhibitors stabilize the Bodipy-GDP complex whereas the untreated protein rapidly exchanges Bodipy-GDP for unlabeled GTP resulting in reduced TR-FRET signal.
(§4) To assemble the preformed TR-FRET complexes, each biotinylated RAS protein is diluted to 2 μM in an EDTA Buffer (20 mM HEPES pH 7.5, 50 mM sodium chloride, 10 mM EDTA, and 0.01% Tween) and incubated at room temperature for one hour. This mixture is then further diluted to 90 nM in an Assay Buffer (20 mM HEPES pH 7.5, 150 mM sodium chloride, 10 mM magnesium chloride, and 0.005% Tween) containing 15 nM of Terbium-Streptavidin (Invitrogen, catalog #PV3577) and 900 nM of Bodipy-GDP (Invitrogen, catalog #G22360) and incubated at room temperature for six hours. It should be noted that this preformed TR-FRET complex for each of the RAS protein were made ahead of time, aliquoted and stored at −80° C. until the day of the experiment.
(§5) Each test compound (10 mM stock in DMSO) is diluted in DMSO to make a final-10-point, 3-fold dilution and is acoustically dispensed into a 384-well assay plate (Corning, catalog #3820) using an Echo 550 (Labcyte). Each well of the assay plate receives 3 μL of a specific 3×RAS preformed TR-FRET complex and 3 μL of Assay Buffer and is incubated at room temperature for 60 minutes (preincubation time). Each well then receives 3 μL of 3× recombinant human SOS protein and GTP (Sigma, G8877) in Assay Buffer and is incubated at room temperature for 30 minutes (G13D), 60 minutes (KRAS WT/G12C/D, H/NRAS) or 90 minutes for G12V. The final reaction in each well of 9 μL consists of 3 mM GTP, specific Ras and SOS proteins in the following concentrations: KRAS-G12C/SOS=3 nM/40 nM, KRAS-WT and G12D/SOS=1 nM/40 nM, KRAS-G12V/SOS=1.25 nM/160 nM, KRAS-G13D/SOS=1.25 nM/0 nM, HRAS and NRAS=1.25 nM/40 nM.
(§6) The time-resolved fluorescence resonance energy transfer (TR-FRET) signal is measured on an Envision (PerkinElmer) plate reader: Excitation filter=340 nm; emission1=495 nm; emission2=520 nm; dichroic mirror=D400/D505; delay time=[…]. The signal of each well is determined as the ratio of the emission at 520 nm to that at 495 nm. Percent effect of each well is determined after normalization to control wells containing DMSO (no effect) or a saturating concentration of inhibitor (max effect). The apparent effect as a function of compound concentration is fit to a four-parameter logistic equation.
(§7) For Example No. 14, nucleotide exchange assays for KRAS G12D, WT, G12C, and G12V were performed according to Procedure B. All the other compounds were tested according to Procedure A.

The target of a further assay is NRAS (Homo sapiens, UniProt P01111). Briefly: SOS-catalyzed nucleotide exchange assay, NRAS (Procedure A). The assay is classed as biochemical. Conditions: GNE.
From the text: as §2, §3, §4, §5, §6, §7

The next assay deals with KRAS WT (Homo sapiens, UniProt P01116). Kind of assay: SOS-catalyzed nucleotide exchange assay, KRAS WT (Procedure A). The assay is classed as biochemical. Conditions: GNE. The method in brief: as §1
A further assay addresses HRAS (Homo sapiens, UniProt P01112). Briefly: SOS-catalyzed nucleotide exchange assay, HRAS (Procedure A). Conditions: GNE. The assay is classed as biochemical.
From the text: as §2, §3, §4, §5, §6, §7

The target of a further assay is KRAS G13D (Homo sapiens, UniProt P01116, G13D). Briefly: SOS-catalyzed nucleotide exchange assay, KRAS G13D (Procedure A). The assay is classed as biochemical. Conditions: GNE.
From the text: as §2, §3, §4, §5, §6, §7

In another assay the target is KRAS G12V (Homo sapiens, UniProt P01116, G12V). Briefly: SOS-catalyzed nucleotide exchange assay, KRAS G12V (Procedure A). The assay is classed as biochemical. Conditions: GNE. The method in brief:
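Biotinylated KRAS G12V was loaded with Bodipy-GDP alongside Terbium-streptavidin to form a TR-FRET complex, which was preincubated with compounds for 60 minutes in 384-well plates. Human SOS protein and unlabeled GTP were then added for 90 minutes, giving final concentrations of 1.25 nM KRAS-G12V, 160 nM SOS and 3 mM GTP. The 520/495 nm emission ratio was read on an Envision.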

Sequence of KRAS G12V (P01116 with tags, fused parts or gaps isoform P01116-2 G12V): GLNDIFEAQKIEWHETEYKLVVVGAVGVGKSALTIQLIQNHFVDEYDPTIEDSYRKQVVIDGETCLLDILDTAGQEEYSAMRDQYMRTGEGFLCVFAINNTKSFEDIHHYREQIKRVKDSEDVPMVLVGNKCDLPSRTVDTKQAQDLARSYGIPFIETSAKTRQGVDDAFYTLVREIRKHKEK
Sequence of KRAS G13D (P01116 with tags, fused parts or gaps isoform P01116-2 G13D): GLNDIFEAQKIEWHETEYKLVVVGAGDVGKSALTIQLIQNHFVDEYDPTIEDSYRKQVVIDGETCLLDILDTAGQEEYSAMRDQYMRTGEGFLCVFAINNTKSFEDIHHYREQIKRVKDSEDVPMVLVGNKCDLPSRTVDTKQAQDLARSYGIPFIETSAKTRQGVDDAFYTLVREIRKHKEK
Sequence of KRAS G12D (P01116 with tags, fused parts or gaps isoform P01116-2 G12D): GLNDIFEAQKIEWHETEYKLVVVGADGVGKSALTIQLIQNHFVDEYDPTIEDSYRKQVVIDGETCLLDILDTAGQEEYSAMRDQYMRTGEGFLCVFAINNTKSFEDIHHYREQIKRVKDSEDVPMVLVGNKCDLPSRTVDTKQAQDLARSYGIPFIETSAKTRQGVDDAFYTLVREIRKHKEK
Sequence of NRAS (P01111 with tags, fused parts or gaps): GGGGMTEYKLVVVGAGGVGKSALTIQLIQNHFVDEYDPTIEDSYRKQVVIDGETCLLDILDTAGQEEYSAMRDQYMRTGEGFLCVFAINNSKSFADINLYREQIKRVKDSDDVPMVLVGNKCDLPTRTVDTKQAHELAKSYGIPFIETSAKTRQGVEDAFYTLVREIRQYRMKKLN
Sequence of KRAS WT (P01116 with tags, fused parts or gaps isoform P01116-2): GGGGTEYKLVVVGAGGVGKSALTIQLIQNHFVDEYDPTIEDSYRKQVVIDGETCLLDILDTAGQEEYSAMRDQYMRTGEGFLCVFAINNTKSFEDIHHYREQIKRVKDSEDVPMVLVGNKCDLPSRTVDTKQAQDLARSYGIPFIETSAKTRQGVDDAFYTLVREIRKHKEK
Sequence of HRAS (P01112 with tags, fused parts or gaps): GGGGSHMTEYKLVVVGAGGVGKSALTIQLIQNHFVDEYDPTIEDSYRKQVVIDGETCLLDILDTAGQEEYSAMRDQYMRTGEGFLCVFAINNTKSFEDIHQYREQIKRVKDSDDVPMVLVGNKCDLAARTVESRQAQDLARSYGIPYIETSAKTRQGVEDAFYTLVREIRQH
Sequence of KRAS G12C (P01116 with tags, fused parts or gaps isoform P01116-2 G12C/C51S/C80L/C118S): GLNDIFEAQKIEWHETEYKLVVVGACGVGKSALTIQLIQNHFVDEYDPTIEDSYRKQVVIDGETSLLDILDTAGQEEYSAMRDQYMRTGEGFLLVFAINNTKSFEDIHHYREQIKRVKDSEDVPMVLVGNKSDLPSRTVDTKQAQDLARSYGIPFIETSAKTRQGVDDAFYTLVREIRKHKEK
T1 sequence (P01116 1-188 isoform P01116-2 G12D): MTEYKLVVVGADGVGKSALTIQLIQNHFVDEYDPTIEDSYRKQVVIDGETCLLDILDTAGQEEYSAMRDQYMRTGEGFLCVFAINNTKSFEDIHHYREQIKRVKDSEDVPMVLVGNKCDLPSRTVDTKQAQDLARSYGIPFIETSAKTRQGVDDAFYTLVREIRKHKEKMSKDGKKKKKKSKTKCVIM

Regarding `F[C@H]1CN2CCC[C@@]2(COc2nc(N3C[C@H]4CC[C@@H](C3)N4)c3c(n2)sc2c(-c4c(C5CC5)c(Cl)cc5[nH]ncc45)nccc23)C1` [Ex-20, 4-((1R,5S)-3,8-diazabicyclo[3.2.1]octan-3-yl)-8-(6-chloro-5-cyclopropyl-1H-indazol-4-yl)-2-(((2R,7aS)-2-fluorotetrahydro-1H-pyrrolizin-7a(5H)-yl)methoxy)pyrido[4′,3′:4,5]thieno[2,3-d]pyrimidine], the IC50 (commonly the concentration that inhibits the measured activity by half) against KRAS G12D is 0.00805 µM; on AsPC-1 cells, 0.296 µM; on KRAS G12C it was 0.412 µM; on NRAS, > 11.1 µM; on KRAS WT, 1.16 µM; on HRAS it was > 11.1 µM. The IC50 is 0.287 µM against KRAS G13D and 1.24 µM at KRAS G12V.
Turning to `CN(C)C[C@@]1(COc2nc(N3C[C@H]4CC[C@@H](C3)N4)c3c(n2)sc2c(-c4c(C5CC5)c(Cl)cc5[nH]ncc45)nccc23)CC1(F)F` [Ex-21, 1-((1R)-1-(((4-((1R,5S)-3,8-diazabicy-clo[3.2.1]octan-3-yl)-8-(6-chloro-5-cyclopropyl-1H-indazol-4-yl)pyrido [4′,3′:4,5]thieno [2,3-d]pyrimidin-2-yl)oxy)methyl)-2,2-difluoro-cyclopropyl)-N,N-dimethyl-methanamine], the IC50 at KRAS G12D was 0.00789 µM; at AsPC-1 cells, 0.612 µM; against KRAS G12C, 0.457 µM; on NRAS, > 11.1 µM; against KRAS WT it was 2.8 µM; against HRAS, > 11.1 µM. Also, the IC50 at KRAS G13D amounted to 0.486 µM; on KRAS G12V, 5 µM.
Turning to `Clc1cc2[nH]ncc2c(-c2nccc3c2sc2nc(OCC45CCOC(CO4)C5)nc(N4C[C@H]5CC[C@@H](C4)N5)c23)c1C1CC1` [Ex-22, 2-((2,6-dioxabicy-clo[3.2.1]octan-5-yl)methoxy)-4-((1R,5S)-3,8-diazabicy-clo[3.2.1]octan-3-yl)-8-(6-chloro-5-cyclopropyl-1H-indazol-4-yl)pyrido [4′,3′:4,5]thi-eno[2,3-d]pyrimidine], the IC50 on KRAS G12D is 2.73 µM; on AsPC-1 cells it was 10 µM; against KRAS G12C, > 11.1 µM; against NRAS, > 11.1 µM; against KRAS WT, > 11.1 µM; against HRAS, > 11.1 µM. Moreover, the results for the IC50 against KRAS G13D and at KRAS G12V were 9.11 µM and > 11.1 µM, respectively.
As for `CC12CC(COc3nc(N4C[C@H]5CC[C@@H](C4)N5)c4c(n3)sc3c(-c5c(C6CC6)c(Cl)cc6[nH]ncc56)nccc34)(CO1)C2` [Ex-23, 4-((1R,5S)-3,8-diazabicy-clo[3.2.1]octan-3-yl)-8-(6-chloro-5-cyclopropyl-1H-indazol-4-yl)-2-(((1R,4r)-1-methyl-2-oxabicy-clo[2.1.1]hex-an-4-yl)methoxy)pyri-do[4′,3′:4,5]thi-eno[2,3-d]pyrimi-dine], the half-inhibitory concentration (IC50) against KRAS G12D was 1.97 µM; on AsPC-1 cells, 8.11 µM; on KRAS G12C it was > 11.1 µM; against NRAS, > 11.1 µM; at KRAS WT it was > 11.1 µM; against HRAS, > 11.1 µM. For the same compound, the IC50 at KRAS G13D and against KRAS G12V was > 11.1 µM each time.
With `OC1C2CCCC1(COc1nc(N3C[C@H]4CC[C@@H](C3)N4)c3c(n1)sc1c(-c4c(C5CC5)c(Cl)cc5[nH]ncc45)nccc13)CC2` (stereo partly drawn) [Ex-24, 1-(((4-((1R,5S)-3,8-diazabicy-clo[3.2.1]octan-3-yl)-8-(6-chloro-5-cyclopropyl-1H-indazol-4-yl)pyri-do[4′,3′:4,5]thi-eno[2,3-d]pyrimidin-2-yl)oxy)methyl)bi-cyclo[3.2.1]oc-tan-8-ol], the IC50 against KRAS G12D was 5.23 µM; on AsPC-1 cells it was 18.4 µM; on KRAS G12C it was > 11.1 µM; at NRAS it was > 11.1 µM; against KRAS WT, > 11.1 µM; on HRAS, > 11.1 µM. Moreover, the IC50 against KRAS G13D and against KRAS G12V was > 11.1 µM throughout.
In the case of `Cc1cc2[nH]ncc2c(-c2nccc3c2sc2nc(OC[C@]4(C#N)C[C@H]4S(C)(=O)=O)nc(N4C[C@H]5CC[C@@H](C4)N5)c23)c1C(F)(F)F` [Ex-32, (1R,2R)-1-(((4-((1R,5S)-3,8-diazabicyclo[3.2.1]octan-3-yl)-8-(6-methyl-5-(trifluoromethyl)-1H-indazol-4-yl)pyrido[4′,3′:4,5]thieno[2,3-d]pyrimidin-2-yl)oxy)methyl)-2-(methylsulfonyl)cyclopropane-1-carbonitrile], the IC50 was 1.02 µM on KRAS G12D; > 30 µM on AsPC-1 cells; > 11.1 µM against KRAS G12C; > 11.1 µM against NRAS; > 11.1 µM on KRAS WT; > 11.1 µM against HRAS. Further, the IC50 against KRAS G13D and against KRAS G12V was > 11.1 µM throughout.
As for `Cc1cc2[nH]ncc2c(-c2nccc3c2sc2nc(OCC4(S(C)(=O)=O)CC4)nc(N4C[C@H]5CC[C@@H](C4)N5)c23)c1C(F)(F)F` [Ex-33, 4-((1R,5S)-3,8-diazabicyclo[3.2.1]octan-3-yl)-8-(6-methyl-5-(trifluoromethyl)-1H-indazol-4-yl)-2-((1-(methylsulfonyl)cyclopropyl)meth-oxy)pyrido[4′,3′:4,5]thieno[2,3-d]pyrimidine], the IC50 was 7.97 µM against KRAS G12D; 20.2 µM at AsPC-1 cells; > 11.1 µM against KRAS G12C; > 11.1 µM at NRAS; > 11.1 µM against KRAS WT; > 11.1 µM against HRAS. Besides, the IC50 against KRAS G13D and at KRAS G12V was > 11.1 µM throughout.
As to `Cc1cc2[nH]ncc2c(-c2nccc3c2sc2nc(OCC4(C#N)CCCO4)nc(N4C[C@H]5CC[C@@H](C4)N5)c23)c1C(F)(F)F` (stereo partly drawn) [Ex-34, 2-(((4-((1R,5S)-3,8-diazabicyclo[3.2.1]octan-3-yl)-8-(6-methyl-5-(trifluoromethyl)-1H-indazol-4-yl)pyrido[4′,3′:4,5]thieno[2,3-d]pyrimidin-2-yl)oxy)methyl)tetrahydrofuran-2-carbonitrile], the 50% inhibitory concentration (IC50) at KRAS G12D was 6.7 µM; at AsPC-1 cells, > 30 µM; at KRAS G12C, > 11.1 µM; at NRAS, > 11.1 µM; on KRAS WT it was > 11.1 µM; on HRAS it was > 11.1 µM. The IC50 at KRAS G13D and at KRAS G12V was > 11.1 µM in each case.
